Values quoted from earlier work in PubChem BioAssay AID1259409 (Chemical Carcinogenesis Research Information System (CCRIS), 2018).

Test system: rodent chemically induced tumor inhibition, incidence and multiplicity
Experiment: CCRIS tumor inhibitor studies
Details: Promoter: NONE USED

Row | Compound | tumour outcome (control, treated, inhibition, significance) (Carcinogen: DIETHYLNITROSAMINE, 55-18-5, Dose [Inhibitor]: 0, 80 MG/KG 1/D FOR 3 D PRIOR TO EACH CARCINOGEN DOSE (STUDY DURATION: 6 MO), Route [Inhibitor]: INTRAPERITONEAL, Species: RAT, Strain/Sex: BD6/FEMALE, Target Tissue: Type of Lesion: ESOPHAGUS: TUMOR, Dose [Carcinogen]: 80 MG/KG BW 1/WK FOR 8 WK) | tumour outcome (control, treated, inhibition, significance) (Carcinogen: DIETHYLNITROSAMINE, 55-18-5, Dose [Inhibitor]: 0, 80 MG/KG 1/D FOR 3 D PRIOR TO EACH CARCINOGEN DOSE (STUDY DURATION: 6 MO), Route [Inhibitor]: INTRAPERITONEAL, Species: RAT, Strain/Sex: BD6/FEMALE, Target Tissue: Type of Lesion: LIVER: TUMOR, Dose [Carcinogen]: 80 MG/KG BW 1/WK FOR 8 WK) | tumour outcome (control, treated, inhibition, significance) (Carcinogen: N-ETHYL-N-NITROSOUREA, 759-73-9, Dose [Inhibitor]: 0, 0.05% IN DRINKING WATER BEGINNING 4 WK POST CARCINOGEN AND CONTINUING FOR STUDY DURATION (STUDY DURATION: 52 WK), Route [Inhibitor]: ORAL, Species: RAT, Strain/Sex: WF/FEMALE, Target Tissue: Type of Lesion: BRAIN: GLIOMA, Dose [Carcinogen]: 5 MG ONCE AT 24 HR OF AGE) | tumour outcome (control, treated, inhibition, significance) (Carcinogen: N-ETHYL-N-NITROSOUREA, 759-73-9, Dose [Inhibitor]: 0, 0.05% IN DRINKING WATER BEGINNING 4 WK POST CARCINOGEN AND CONTINUING FOR STUDY DURATION (STUDY DURATION: 52 WK), Route [Inhibitor]: ORAL, Species: RAT, Strain/Sex: WF/MALE, Target Tissue: Type of Lesion: BRAIN: GLIOMA, Dose [Carcinogen]: 5 MG ONCE AT 24 HR OF AGE) | tumour outcome (control, treated, inhibition, significance) (Carcinogen: N-ETHYL-N-NITROSOUREA, 759-73-9, Dose [Inhibitor]: 0, 0.05% IN DRINKING WATER BEGINNING 4 WK POST CARCINOGEN AND CONTINUING FOR STUDY DURATION (STUDY DURATION: 52 WK), Route [Inhibitor]: ORAL, Species: RAT, Strain/Sex: WF/MALE, Target Tissue: Type of Lesion: MENINGES: TUMOR, Dose [Carcinogen]: 5 MG ONCE AT 24 HR OF AGE) | tumour outcome (control, treated, inhibition, significance) (Carcinogen: N-METHYL-N-NITROSOUREA, 684-93-5, Dose [Inhibitor]: 0, 0.05% IN DIET BEGINNING POST CARCINOGEN TREATMENT AND CONTINUING FOR 23 WK (STUDY DURATION: 25 WK), Route [Inhibitor]: ORAL, Species: RAT, Strain/Sex: F344/MALE, Target Tissue: Type of Lesion: FORESTOMACH: PAPILLOMA, Dose [Carcinogen]: 50 MG/KG 4/2 WK) | tumour outcome (control, treated, inhibition, significance) (Carcinogen: N-METHYL-N-NITROSOUREA, 684-93-5, Dose [Inhibitor]: 0, 0.05% IN DIET BEGINNING POST CARCINOGEN TREATMENT AND CONTINUING FOR 23 WK (STUDY DURATION: 25 WK), Route [Inhibitor]: ORAL, Species: RAT, Strain/Sex: F344/MALE, Target Tissue: Type of Lesion: FORESTOMACH: SQUAMOUS CELL CARCINOMA, Dose [Carcinogen]: 50 MG/KG 4/2 WK) | tumour outcome (control, treated, inhibition, significance) (Carcinogen: N-METHYL-N-NITROSOUREA, 684-93-5, Dose [Inhibitor]: 0, 0.05% IN DIET BEGINNING POST CARCINOGEN TREATMENT AND CONTINUING FOR 23 WK (STUDY DURATION: 25 WK), Route [Inhibitor]: ORAL, Species: RAT, Strain/Sex: F344/MALE, Target Tissue: Type of Lesion: HEMATOPOIETIC SYSTEM: LYMPHOMA OR LEUKEMIA, Dose [Carcinogen]: 50 MG/KG 4/2 WK) | tumour outcome (control, treated, inhibition, significance) (Carcinogen: N-METHYL-N-NITROSOUREA, 684-93-5, Dose [Inhibitor]: 0, 0.05% IN DIET BEGINNING POST CARCINOGEN TREATMENT AND CONTINUING FOR 23 WK (STUDY DURATION: 25 WK), Route [Inhibitor]: ORAL, Species: RAT, Strain/Sex: F344/MALE, Target Tissue: Type of Lesion: SMALL INTESTINE: ADENOCARCINOMA, Dose [Carcinogen]: 50 MG/KG 4/2 WK) | tumour outcome (control, treated, inhibition, significance) (Carcinogen: N-METHYL-N-NITROSOUREA, 684-93-5, Dose [Inhibitor]: 0, 0.05% IN DIET BEGINNING POST CARCINOGEN TREATMENT AND CONTINUING FOR 23 WK (STUDY DURATION: 25 WK), Route [Inhibitor]: ORAL, Species: RAT, Strain/Sex: F344/MALE, Target Tissue: Type of Lesion: SMALL INTESTINE: ADENOMA, Dose [Carcinogen]: 50 MG/KG 4/2 WK) | tumour outcome (control, treated, inhibition, significance) (Carcinogen: N-METHYL-N-NITROSOUREA, 684-93-5, Dose [Inhibitor]: 0, 0.05% IN DIET BEGINNING POST CARCINOGEN TREATMENT AND CONTINUING FOR 23 WK (STUDY DURATION: 25 WK), Route [Inhibitor]: ORAL, Species: RAT, Strain/Sex: F344/MALE, Target Tissue: Type of Lesion: THYROID: ADENOCARCINOMA, Dose [Carcinogen]: 50 MG/KG 4/2 WK) | tumour outcome (control, treated, inhibition, significance) (Carcinogen: N-METHYL-N-NITROSOUREA, 684-93-5, Dose [Inhibitor]: 0, 0.05% IN DIET BEGINNING POST CARCINOGEN TREATMENT AND CONTINUING FOR 23 WK (STUDY DURATION: 25 WK), Route [Inhibitor]: ORAL, Species: RAT, Strain/Sex: F344/MALE, Target Tissue: Type of Lesion: THYROID: ADENOMA, Dose [Carcinogen]: 50 MG/KG 4/2 WK) | tumour outcome (control, treated, inhibition, significance) (Carcinogen: N-METHYL-N-NITROSOUREA, 684-93-5, Dose [Inhibitor]: 0, 0.05% IN DIET BEGINNING POST CARCINOGEN TREATMENT AND CONTINUING FOR 23 WK (STUDY DURATION: 25 WK), Route [Inhibitor]: ORAL, Species: RAT, Strain/Sex: F344/MALE, Target Tissue: Type of Lesion: TONGUE: PAPILLOMA, Dose [Carcinogen]: 50 MG/KG 4/2 WK) | tumour outcome (control, treated, inhibition, significance) (Carcinogen: N-METHYL-N-NITROSOUREA, 684-93-5, Dose [Inhibitor]: 0, 0.05% IN DIET BEGINNING POST CARCINOGEN TREATMENT AND CONTINUING FOR 23 WK (STUDY DURATION: 25 WK), Route [Inhibitor]: ORAL, Species: RAT, Strain/Sex: F344/MALE, Target Tissue: Type of Lesion: TONGUE: SQUAMOUS CELL CARCINOMA, Dose [Carcinogen]: 50 MG/KG 4/2 WK) | tumour outcome (control, treated, inhibition, significance) (Carcinogen: N-METHYL-N-NITROSOUREA, 684-93-5, Dose [Inhibitor]: 0, 0.05% IN DIET BEGINNING POST CARCINOGEN TREATMENT AND CONTINUING FOR 23 WK (STUDY DURATION: 25 WK), Route [Inhibitor]: ORAL, Species: RAT, Strain/Sex: F344/MALE, Target Tissue: Type of Lesion: URINARY BLADDER: PAPILLOMA, Dose [Carcinogen]: 50 MG/KG 4/2 WK) | tumour outcome (control, treated, inhibition, significance) (Dose [Inhibitor]: 0, 0.05% IN DIET FOR 13 WK AFTER WEANING (STUDY DURATION: 13 WK), Route [Inhibitor]: ORAL, Species: MOUSE, Strain/Sex: DDK/FEMALE, Target Tissue: Type of Lesion: LIVER: TUMOR, Dose [Carcinogen]: 40 MG/KG ADMINISTERED TO MOTHERS ON DAY 14 OF GESTATION) | tumour outcome (control, treated, inhibition, significance) (Dose [Inhibitor]: 0, 0.05% IN DIET FOR 13 WK AFTER WEANING (STUDY DURATION: 13 WK), Route [Inhibitor]: ORAL, Species: MOUSE, Strain/Sex: DDK/MALE, Target Tissue: Type of Lesion: LIVER: TUMOR, Dose [Carcinogen]: 40 MG/KG ADMINISTERED INTRAPERITONEALLY TO MOTHERS ON DAY 14 OF GESTATION) | tumour outcome (control, treated, inhibition, significance) (Dose [Inhibitor]: 0, 0.05% IN DIET FOR 25 WK AFTER WEANING (STUDY DURATION: 25 WK), Route [Inhibitor]: ORAL, Species: MOUSE, Strain/Sex: DDK/MALE, Target Tissue: Type of Lesion: LIVER: TUMOR, Dose [Carcinogen]: 40 MG/KG ADMINISTERED TO MOTHERS ON DAY 14 OF GESTATION) | tumour outcome (control, treated, inhibition, significance) (Carcinogen: N-BUTYL-N-(4-HYDROXYBUTYL)NITROSAMINE, 3817-11-6, Dose [Inhibitor]: 1.5 MMOL/KG DIET DAILY FOR 153 D STARTING ONE WK AFTER THE FINAL CARCINOGEN DOSE (STUDY DURATION: 210 D), Route [Inhibitor]: ORAL, Species: MOUSE, Strain/Sex: BDF/MALE, Target Tissue: Type of Lesion: URINARY BLADDER: TRANSITIONAL CELL CARCINOMA, Dose [Carcinogen]: 7.5 MG 1/WK FOR 8 WK) | tumour outcome (control, treated, inhibition, significance) (Carcinogen: N-BUTYL-N-(4-HYDROXYBUTYL)NITROSAMINE, 3817-11-6, Dose [Inhibitor]: 1.5 MMOL/KG IN DIET DAILY FOR 153 D STARTING ONE WK AFTER THE LAST CARCINOGEN DOSE (STUDY DURATION: 210 D), Route [Inhibitor]: ORAL, Species: MOUSE, Strain/Sex: BDF/MALE, Target Tissue: Type of Lesion: URINARY BLADDER: TRANSITIONAL CELL CARCINOMA, Dose [Carcinogen]: 7.5 MG 1/WK FOR 8 WK)
1 | CCC1(c2ccccc2)C(=O)NC(=O)NC1=O | 18%, 0%, 100%, not significant | 82%, 100%, -18%, not significant | 7/13 (54%), 1/12 (8%), 85%, p<.05 | 3/13 (23%), 1/10 (10%), 56%, not significant | 1/13 (8%), 0/10 (0%), 100%, not calculated | 8/17 (47%), 12/18 (67%), -43%, not calculated | 2/17 (12%), 9/18 (50%), -316%, not calculated | 3/17 (18%), 5/18 (28%), -56%, not calculated | 9/17 (53%), 6/18 (33%), 38%, not calculated | 10/17 (59%), 15/18 (83%), -41%, not calculated | 1/17 (6%), 6/18 (33%), -450%, not calculated | 3/17 (18%), 16/18 (89%), -394%, not calculated | 2/17 (12%), 2/18 (11%), 8%, not calculated | 2/17 (12%), 3/18 (17%), -42%, not calculated | 2/17 (12%), 1/18 (6%), 50%, not calculated | 2/15 (13%), 1/15 (7%), 46%, p<0.05 | 2/15 (13%), 1/7 (6%), 54%, p<0.05 | 8/15 (53%), 0/18 (0%), 100%, not calculated | – | –
2 | CCNC(=O)\C=C(C)/C=C/C=C(C)/C=C/C1=C(C)CCCC1(C)C | – | – | – | – | – | – | – | – | – | – | – | – | – | – | – | – | – | – | 35/99 (35%), 19/96 (20%), 43%, p<0.05 | 35/99 (35%), 19/96 (20%), 43%, p<0.05
